Read-outs that look alike come from different tables or passages of the source.
Experiments:
Format in all cases: cell-based
[1] = tested on: multiple myeloma cell lines (MM.1S, 8226, KMS-11, U266)
Procedure: (§1) Cytotoxicity assay: Cells were incubated for 24 hr at 37° C. in 5% CO2 at which time drug treatments began and continued for 24 hr. At this time attached cells were trypsinized and combined with their respective culture media while suspension cells were directly transferred to a tube followed by centrifugation at 400 g for 5 min. The pellets were resuspended in 1 ml of Hanks solution and analyzed by Vi-Cell (Beckman Coulter, Fullerton, Calif.) cell viability analyzer.

[2] = tested on: non-myeloma cell lines (NALM6, 143B, MDA-MB-435, 1420)
Procedure: as §1

[3] = tested on: B-cell leukemia lines (NALM6, REH)
Procedure: (§2) Cytotoxicity assay: Cells were incubated for 24 h at 37° C. in 5% CO2 at which time drug treatments began and continued for 24 h. At this time cells were transferred to a tube followed by centrifugation at 400 g for 5 min. The pellets were resuspended in 1 ml of Hanks solution and analyzed by Vi-Cell (Beckman Coulter, Fullerton, Calif., USA) cell viability analyzer.

[4] = tested on: MM cell lines (MM.1S, 8226, KMS-11)
Procedure: as §2

[5] = tested on: MM cell lines (MM1.S, 8226, KMS-11, U266); experiment: Measurement of cytoplasmic calcium (indo-1 fluorescence ratio 400/500 nm); conditions: for cytoplasmic Ca2+ after mitochondrial inhibitor / effect on mitochondrial Ca2+ uptake: MM cell lines; for effect on mitochondrial Ca2+ uptake: estimated from cytoplasmic Ca2+
Procedure: (§3) Measurement of cytoplasmic calcium: Cytoplasmic Ca^2+ concentration was estimated by using the cell permeant fluorochrome indo-1-AM (Invitrogen, Carlsbad, Calif.). When excited at 355 nm, the maximum emission of indo-1 shifts from 500 nm to 400 nm following its binding to free Ca^2+. Thus, the ratio of reading at 400 nm and 500 nm correlates with concentration of cytoplasmic Ca^2+. Experiments were performed in cells loaded with indo-1 by incubating them with 2.5 μM of this fluorochrome at 37° C. for 45 min. Cells were then centrifuged at 400 g for 5 min and resuspended in their growth medium followed by distribution of 100 μl of aliquots into 96 well optical bottom plates (Nalge Nunc, Int., Rochester, N.Y.) and fluorescence was measured by Spectra Max Gemini Plus (Molecular Devices, Sunnyvale, Calif.). The average of triplicates from untreated samples was used as control reading and increase in cytoplasmic Ca^2+ was calculated as percent increase from control samples.

[6] = tested on: non-myeloma cell lines (NALM6, MDA-MB-435, 143B, 1420); experiment: as above; conditions: for increase in cytoplasmic Ca2+ after mitochondrial inhibitor: non-myeloma cell lines (oligomycin: all cell lines)
Procedure: as §3

[7] = tested on: MM (MM.1S, 8226, KMS-11) and B-cell leukemia (NALM6, REH) cell lines; experiment: ER Ca2+ leak: cytoplasmic Ca2+ (indo-1) after thapsigargine, Example 2
Procedure: Measurement of cytoplasmic and mitochondrial calcium: Cytoplasmic Ca^2+ concentration was estimated by using the cell permeant ratiometric fluorochrome indo-1-AM (Invitrogen, Carlsbad, Calif., USA) while mitochondrial Ca^2+ was measured by X-Rhod-1-AM (Invitrogen, Carlsbad, Calif., USA). In the latter assay, to normalize mitochondrial Ca^2+ signal to mitochondria number, Mitotracker Green (Invitrogen, Carlsbad, Calif., USA) fluorescence was simultaneously analyzed. Experiments were performed in cells loaded with either 2.5 μM of indo-1 or 5 μM X-rhod-1 and 250 nM of Mitotracker at 37° C. for 45 min. Cells were, then, centrifuged at 400 g for 5 min and resuspended in their growth medium followed by distribution of 100 μl of aliquots into 96 well optical bottom plates (Nalge Nunc, Int., Rochester, N.Y., USA) and fluorescence was measured by Spectra Max Gemini Plus (Molecular Devices, Sunnyvale, Calif., USA). The average of triplicates from untreated samples was used as control reading and increase in cytoplasmic or mitochondrial Ca^2+ was calculated as percent increase from control samples.
Due to the high levels of glycoprotein production in MM cells, it was investigated whether there is a greater ER Ca^2+ leak in these cells as compared to Bcells. As shown in previous reports, ER Ca^2+ leak can be assayed indirectly by measuring cytoplasmic Ca^2+ concentration following inhibition of SERCA by thapsigargine.

[8] = tested on: CHOP/GADD153 and cleaved caspase 3 in 4 MM cell lines; experiment: Western blot of CHOP/GADD153 and cleaved caspase 3 (UPR-mediated apoptosis); conditions: all 4 MM cell lines
Procedure: Western Blot analysis: Cells are plated at 10^4 cell/cm^−2 for attached cells and 3×10^5/ml for suspension cells and grown under drug treatment for the indicated times. At the end of the treatment period, cells are collected and lysed with 1% SDS in 80 mM Tris-HCL (ph 7.4) buffer supplemented with a proteinase inhibitor cocktail. DNA is fragmented by sonication and protein concentrations are measured by microBCA protein assay kit (Pierce, Rockford, Ill.). Samples are mixed with 3× Laemmli sample buffer (Cell Signaling, Danvers, Mass.) and 40 μg of protein was run on a 12% SDS-polyacrylamide gel. Gels are transferred to nitrocellulose membranes (Amersham, Piscataway, N.J.) and probed with monoclonal rabbit anti-GRP94, anti GRP-78, anti-PDI, anti-CHOP/GADD153, anti-cleaved caspase 3 (Cell Signaling, Danvers, Mass.) and monoclonal mouse anti-β-actin (Sigma, St. Louis, Mo.). Following probing, membranes are washed and incubated with HRP-conjugated secondary antibody (Invitrogen, Carlsbad, Calif.). Following addition of 1:3 diluted femto-chemiluminescent substrate (Pierce, Rockford, Ill.) membranes were exposed to blue autoradiographic film (ISC bioexpress, Kaysville, Utah). Where indicated, membranes were stripped with Stripping Buffer (Pierce, Rockford, Ill.) and reprobed with anti-β-actin (Sigma-Aldrich, St. Louis, Mo.) primary antibody. When needed, the blots were quantified using Bio-Rad gel reader which employs Quality I software (Bio-Rad, Hercules, Calif.).

[9] = tested on: CHOP/GADD153 and cleaved caspase 3 in MM.1S, 8226, KMS-11; experiment: Western blot of CHOP/GADD153 and cleaved caspase 3 in 3 MM cell lines; conditions: concentrations of FIG. 13
Procedure: . Induction of UPR-mediated apoptosis following treatment of 3 MM cell lines with four different mitochondrial inhibitors for various time points was assayed by western blot analysis of CHOP and cleaved caspase 3.
Western blot analysis: Western blots were performed. Membranes were probed with monoclonal rabbit anti-GRP94, anti GRP-78, anti-PDI, anti-CHOP/GADD153, anti-cleaved caspase 3 (Cell Signaling, Danvers, Mass., USA) and monoclonal mouse anti-β-actin (Sigma, St. Louis, Mo., USA).

MM.1S cells = experiment: Reversal of CCCP induced toxicity (trypan blue exclusion); conditions: 10 μM BAPTA-AM or 50 μM of Z-VAD
Procedure: A) Reversal of CCCP induced toxicity by either 10 μM BAPTA-AM or 50 μM of Z-VAD was investigated using trypan blue exclusion assays. The bars represent the average of triplicate samples +SD. B) ATP levels were assayed following 6 h of treatment with indicated concentrations of CCCP. The bars represent the average of triplicate samples +SD. C) Induction of UPR, activation of AMPK pathway and cleavage of caspase 3 was analyzed by western blots following 24 h treatment with indicated concentrations of CCCP in MM.1S and REH cell lines. β-Actin was used as a loading control. D) The quantification of phosphorylated AMPK and total AMPK bands in the previous panel was done using a Bio-Rad gel reader which employs Quality I software. The bars represent the fold increase in the ratio of p-AMPK/AMPK in treated versus untreated samples from three independent experiments +SD.
as §2

[10] = 24 h, at doses toxic to MM cell lines
[11] = 24 h, at concentrations toxic to MM cell lines

Compound | cytotoxicity (cell death) [1] | cytotoxicity [2, 10] | cytotoxicity [3, 11] | cytotoxicity (cell death) [4] | increase in cytoplasmic Ca2+ after mitochondrial inhibitor [6] | treatment time at which CHOP/GADD153 expression is noted [8] [h] | CHOP/GADD153 expression relative to CCCP [9] | also measured
Cc1c(C)c2c(c(C)c1O)CCC(C)(COc1ccc(CC3SC(=O)NC3=O)cc1)O2 (stereo not drawn) [troglitazone] | significant toxicity | not toxic to non-myeloma cells | less toxic to B-cell leukemia lines | significant toxicity |  |  |  | 
C/C=C(/C)C(=O)O[C@H]1C(C)=C2[C@H]([C@@H]1OC(=O)CCCCCCC)[C@@](C)(OC(C)=O)C[C@H](OC(=O)CCC)[C@@]1(O)[C@H]2OC(=O)[C@@]1(C)O [thapsigargine] | sensitive | resistant | resistant | sensitive |  |  |  | order of sensitivity among MM cell lines ([1]; 24 h treatment): MM.1S>8226>KMS-11>U266; cytoplasmic Ca2+ increase after thapsigargine in 8226 ([5]; 8226 compared to KMS-11 or U266): increase less than that observed in KMS-11 or U266 cell lines; lag before increase in cytoplasmic Ca2+ ([5]; U266 (printed U226) cell line): ~20 min; cytoplasmic Ca2+ concentration after thapsigargine ([5]; immediately after addition, MM1.S, 8226 and KMS-11): significantly increases; cytoplasmic Ca2+ after thapsigargine ([6]; 143B and 1420, 30 min. after addition): significantly increases; cytoplasmic Ca2+ after thapsigargine ([6]; NALM6 and MDA-MB-435): little or no change; order of ER Ca2+ leak after thapsigargine ([7]; MM cell lines): MM1.S>8226>KMS-11; cytoplasmic Ca2+ concentration at new equilibrium ([7]; after 30 min, MM versus B-cell leukemias): all 3 MM cell lines had significantly greater cytoplasmic Ca^2+ concentration than the 2 B-cell leukemias; cytoplasmic Ca2+ concentration ([7]; within 5 min after addition, all five cell lines): significantly increases
CC(C)OC(=O)C(C)(C)Oc1ccc(C(=O)c2ccc(Cl)cc2)cc1 [fenofibrate] | significant toxicity | not toxic to non-myeloma cells | less toxic to B-cell leukemia lines | significant toxicity |  |  |  | 
antimycin A | significant cell death |  |  | significant cell death | not seen in non-myeloma cell lines except for NALM6 | 6 | comparable to that induced by CCCP | cytotoxic potency compared to the other mitochondrial inhibitors [1]: less toxic than these two mitochondrial inhibitors; cytotoxicity [2]: little or no toxicity; cytoplasmic Ca2+ after mitochondrial inhibitor [5]: immediate increase in cytoplasmic Ca^2+; cytotoxicity [3]: little or no toxicity
CC(=O)OCOC(=O)CN(CC(=O)OCOC(C)=O)c1ccccc1OCCOc1ccccc1N(CC(=O)OCOC(C)=O)CC(=O)OCOC(C)=O [BAPTA-AM] |  |  |  |  |  |  |  | reversal of CCCP induced toxicity (MM.1S cells): does not reverse the toxicity of CCCP
C=C(C)[C@H]1Cc2c(ccc3c2O[C@@H]2COc4cc(OC)c(OC)cc4[C@@H]2C3=O)O1 [rotenone] | significant cell death |  |  | significant cell death | not seen in non-myeloma cell lines except for NALM6 | 6 | less CHOP/GADD153 expression than CCCP | cytotoxic potency compared to the other mitochondrial inhibitors [1]: equipotency in inducing cytotoxicity in MM cells; cytotoxicity [2]: little or no toxicity; cytoplasmic Ca2+ after mitochondrial inhibitor [5]: immediate increase in cytoplasmic Ca^2+; effect on mitochondrial Ca2+ uptake [5]: equally inhibit mitochondrial Ca^2+ uptake; cytotoxicity [3]: little or no toxicity
Z-VAD |  |  |  |  |  |  |  | reversal of CCCP induced toxicity (MM.1S cells): can reverse the majority of CCCP toxicity
CC[C@H]1/C=C/C=C/C[C@@H](C)[C@H](O)[C@@](C)(O)C(=O)[C@@H](C)[C@H](O)[C@@H](C)C(=O)[C@@H](C)[C@H](O)[C@@H](C)/C=C/C(=O)O[C@@H]2[C@H](C)[C@H](CC1)O[C@]1(CC[C@H](C)[C@H](C[C@@H](C)O)O1)[C@H]2C [oligomycin] |  | little or no toxicity | little or no toxicity |  | minimal or no effect | 6 | comparable to that induced by CCCP | cytotoxic potency compared to the other mitochondrial inhibitors ([1]; 24 h, MM cells): less toxic potency in MM cells when compared to other inhibitors; cytotoxicity (cell death) ([1]; 24 h treatment, all 4 MM cell lines): significant cell death; effect on mitochondrial Ca2+ uptake [5]: little or no effect; cytotoxicity (cell death) ([4]; 24 h, all 3 MM cell lines): significant cell death
